Experiments:
GluA2o LBD = GluA2o LBD (Homo sapiens, UniProt P42262); experiment: SPA displacement of [3H]-HBT1 from His-tagged GluA2o LBD; details: 40 nM [3H]-HBT1, 100 μM glutamate, read-out: IC50, inhibition of binding between [3H]-HBT1 and His-LBD
Source text: We previously reported that structural interference at Ser750 in the channel-closed state of GluA2o LBD might be involved in the molecular mechanisms underlying the lower agonistic effect of AMPA-R potentiators with dihydropyridothiadiazine 2,2-dioxide derivatives and discovered TAK-137, 9-(4-phenoxyphenyl)-3,4-dihydropyrido[2,1-c][1,2,4]thiadiazine 2,2-dioxide (Fig. 1A)[16]. […] TAK-653 bound to the intradimer interface formed by the ligand binding core (Fig. 1B). […] Binding affinity of TAK-653 to the GluA2o LBD was measured by a scintillation proximity assay (SPA) using [^3H]-HBT1, a radio-labeled LBD-binding AMPA-R potentiator, and a His-tagged GluA2o LBD protein (His-LBD)[21]. […] Binding of [^3H]-TAK-653 to His-LBD was also measured by SPA.
The SPA assays were performed as previously described, with some modifications. […] Radioactivity derived from the bound radio ligand was measured using a microplate scintillation counter (TopCount NXT, PerkinElmer Inc.).

lipoxygenase 5-LO = target: T1, lipoxygenase 5-LO (Homo sapiens, UniProt P09917); experiment: Lipoxygenase 5-LO enzyme activity; format: biochemical
T1 construct: Ricerca, Taipei, Taiwan
T1 sequence (P09917 1-674): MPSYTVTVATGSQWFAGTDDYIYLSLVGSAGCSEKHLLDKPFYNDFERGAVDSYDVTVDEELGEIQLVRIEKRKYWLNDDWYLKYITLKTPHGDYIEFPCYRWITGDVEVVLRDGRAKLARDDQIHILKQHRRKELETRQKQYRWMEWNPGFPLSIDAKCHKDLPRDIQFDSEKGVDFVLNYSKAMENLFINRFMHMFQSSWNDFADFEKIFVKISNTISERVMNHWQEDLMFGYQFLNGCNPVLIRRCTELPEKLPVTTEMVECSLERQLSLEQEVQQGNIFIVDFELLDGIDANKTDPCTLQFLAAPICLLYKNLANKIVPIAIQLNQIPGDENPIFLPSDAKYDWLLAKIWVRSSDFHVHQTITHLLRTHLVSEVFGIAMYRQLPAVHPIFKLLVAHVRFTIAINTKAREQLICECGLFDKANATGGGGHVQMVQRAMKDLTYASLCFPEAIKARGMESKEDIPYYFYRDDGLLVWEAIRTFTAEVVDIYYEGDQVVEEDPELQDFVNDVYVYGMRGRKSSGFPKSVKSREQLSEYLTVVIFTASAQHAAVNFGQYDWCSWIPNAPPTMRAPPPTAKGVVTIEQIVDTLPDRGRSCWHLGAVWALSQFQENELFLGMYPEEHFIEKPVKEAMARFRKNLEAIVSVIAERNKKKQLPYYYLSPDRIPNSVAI

GluA2o LBD, sequence (P42262 with tags, fused parts or gaps): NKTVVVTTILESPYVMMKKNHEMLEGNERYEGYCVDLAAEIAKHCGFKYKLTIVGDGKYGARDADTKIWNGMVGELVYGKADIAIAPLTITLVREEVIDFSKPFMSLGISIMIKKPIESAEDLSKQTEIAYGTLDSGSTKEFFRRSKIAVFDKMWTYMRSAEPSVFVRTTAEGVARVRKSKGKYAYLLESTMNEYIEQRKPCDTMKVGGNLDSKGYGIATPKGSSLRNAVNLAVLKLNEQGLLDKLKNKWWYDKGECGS

Q: With `CC1=CN2CCS(=O)(=O)N=C2C(c2ccc(OC3CCCCC3)cc2)=N1` [TAK-653, 9-[4-(Cyclohexyloxy)phenyl]-7-methyl-3,4-dihydropyrazino[2,1-c][1,2,4]thiadiazine 2,2-dioxide] as the compound, how does the IC50 (GluA2o LBD) read?
A: 0.26 µM

Q: And the IC50 (lipoxygenase 5-LO)?
A: 5.9 µM

Reference: article PMC8282797, “Strictly regulated agonist-dependent activation of AMPA-R is the key characteristic of TAK-653 for robust synaptic responses and cognitive improvement” (Scientific Reports, 2021)
